Source: US20250213735A1, “NEUROPEPTIDE Y1 RECEPTOR (NPY1R) TARGETED THERAPEUTICS AND USES THEREOF” (Radionetics Oncology, Inc., priority 2023, published 2025)
Numbered stars: 1 amine (or outer) side, 2 acyl side, 3 side chain; on linkers, the order of the positions; unused ones are H or OH. Square brackets hold non-standard residues; d marks the D form. Peptide text beside a SMILES is read from it. * marks the point of attachment. dArg(Nω-CONH(CH2)2NHCOEt) = CCC(=O)NCCNC(=O)/N=C(/N)NCCC[C@@H](N)C(=O)O; DOTA = O=C(O)CN1CCN(CC(=O)O)CCN(CC(=O)*)CCN(CC(=O)O)CC1; X2 = O=C([C@H](c1cccc(NCCCN[*:1])c1)N1Cc2ccccc2C1)[*:2]; NH(4-OH-benzyl) = Oc1ccc(CN*)cc1; Sar = CNCC(=O)O

What follows are molecules tested against hNPY1R (Homo sapiens (Human), UniProt P25929) (assay: NPY1R binding assay (SK-N-MC membrane, [125I]-Peptide YY competition)). Conditions: crude SK-N-MC membranes endogenously expressing NPY1R; [125I]-Peptide YY (human) 0.05 nM; 120 min at room temperature; read-out: hNPY1R binding Ki.
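Note: bound radioligand separated by filtration over GF/C filter plates and counted, Ki obtained by non-linear regression.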

hNPY1R, sequence (P25929 whole entry): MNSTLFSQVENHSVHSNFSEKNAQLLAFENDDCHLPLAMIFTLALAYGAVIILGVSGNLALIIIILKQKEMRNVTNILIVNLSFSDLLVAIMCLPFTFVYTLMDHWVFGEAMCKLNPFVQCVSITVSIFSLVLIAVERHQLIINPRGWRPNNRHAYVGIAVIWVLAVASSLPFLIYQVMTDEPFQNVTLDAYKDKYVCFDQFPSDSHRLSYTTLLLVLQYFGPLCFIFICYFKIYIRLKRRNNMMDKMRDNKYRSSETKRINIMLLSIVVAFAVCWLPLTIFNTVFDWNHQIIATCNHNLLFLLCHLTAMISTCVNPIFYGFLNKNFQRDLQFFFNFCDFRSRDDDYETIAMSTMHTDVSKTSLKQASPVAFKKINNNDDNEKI

Compound | Ki
CCC(=O)NCCNC(=O)/N=C(/N)NCCC[C@@H](NC(=O)[C@H](c1cccc(NCCCNC(=O)CCCCCNC(=O)CN2CCN(CC(=O)O)CCN(CC(=O)O)CCN(CC(=O)O)CC2)c1)N1Cc2ccccc2C1)C(=O)NCc1ccc(O)cc1 [compound 19, 2,2′,2″-(10-(2-((6-((3-((3-((1S,4R,Z)-9-amino-4-((4-hydroxybenzyl)carbamoyl)-1-(isoindolin-2-yl)-2,11,16-trioxo-3,8,10,12,15-pentaazaoctadec-9-en-1-yl)phenyl)amino)propyl)amino)-6-oxohexyl)amino)-2-oxoethyl)-1,4,7,10-tetraazacyclododecane-1,4,7-triyl)triacetic acid] | < 10 nM
CCC(=O)NCCNC(=O)/N=C(/N)NCCC[C@@H](NC(=O)[C@H](c1cccc(NCCCNC(=O)CCOCCNC(=O)CN2CCN(CC(=O)O)CCN(CC(=O)O)CCN(CC(=O)O)CC2)c1)N1Cc2ccccc2C1)C(=O)NCc1ccc(O)cc1 [compound 20, 2,2′,2″-(10-(2-((2-(3-((3-((3-((1S,4R,Z)-9-amino-4-((4-hydroxybenzyl)carbamoyl)-1-(isoindolin-2-yl)-2,11,16-trioxo-3,8,10,12,15-pentaazaoctadec-9-en-1-yl)phenyl)amino)propyl)amino)-3-oxopropoxy)ethyl)amino)-2-oxoethyl)-1,4,7,10-tetraazacyclododecane-1,4,7-triyl)triacetic acid] | < 10 nM
CCC(=O)NCCNC(=O)/N=C(/N)NCCC[C@@H](NC(=O)[C@H](c1cccc(NCCCNC(=O)CN(C)C(=O)CN(C)C(=O)CN(C)C(=O)CN2CCN(CC(=O)O)CCN(CC(=O)O)CCN(CC(=O)O)CC2)c1)N1Cc2ccccc2C1)C(=O)NCc1ccc(O)cc1 [compound 21, 2,2′,2″-(10-(15-((3-((1S,4R,Z)-9-amino-4-((4-hydroxybenzyl)carbamoyl)-1-(isoindolin-2-yl)-2,11,16-trioxo-3,8,10,12,15-pentaazaoctadec-9-en-1-yl)phenyl)amino)-3,6,9-trimethyl-2,5,8,11-tetraoxo-3,6,9,12-tetraazapentadecyl)-1,4,7,10-tetraazacyclododecane-1,4,7-triyl)triacetic acid] ({DOTA}-[Sar][Sar][Sar][X2][dArg(Nω-CONH(CH2)2NHCOEt)]-{NH(4-OH-benzyl)}) | < 10 nM
CCC(=O)NCCNC(=O)/N=C(/N)NCCC[C@@H](NC(=O)[C@H](c1cccc(NCCCNC(=O)NOCCNC(=O)CN2CCN(CC(=O)O)CCN(CC(=O)O)CCN(CC(=O)O)CC2)c1)N1Cc2ccccc2C1)C(=O)NCc1ccc(O)cc1 [compound 22, 2,2′,2″-(10-(12-((3-((1S,4R,Z)-9-amino-4-((4-hydroxybenzyl)carbamoyl)-1-(isoindolin-2-yl)-2,11,16-trioxo-3,8,10,12,15-pentaazaoctadec-9-en-1-yl)phenyl)amino)-2,8-dioxo-6-oxa-3,7,9-triazadodecyl)-1,4,7,10-tetraazacyclododecane-1,4,7-triyl)triacetic acid] | < 10 nM
CCC(=O)NCCNC(=O)/N=C(/N)NCCC[C@@H](NC(=O)[C@H](c1cccc(NCCCNC(=O)CCOCCOCCOCCOCCOCCOCCNC(=O)CN2CCN(CC(=O)O)CCN(CC(=O)O)CCN(CC(=O)O)CC2)c1)N1Cc2ccccc2C1)C(=O)NCc1ccc(O)cc1 [compound 23, 2,2′,2″-(10-(28-((3-((1S,4R,Z)-9-amino-4-((4-hydroxybenzyl)carbamoyl)-1-(isoindolin-2-yl)-2,11,16-trioxo-3,8,10,12,15-pentaazaoctadec-9-en-1-yl)phenyl)amino)-2,24-dioxo-6,9,12,15,18,21-hexaoxa-3,25-diazaoctacosyl)-1,4,7,10-tetraazacyclododecane-1,4,7-triyl)triacetic acid] | < 10 nM
